Measured values as given in US20240148821A1, “PHARMACEUTICAL USE OF CYCLIC PEPTIDE COMPOUND” (CHUGAI SEIYAKU KABUSHIKI KAISHA, priority 2021, published 2024).
Numbered stars: 1 amine (or outer) side, 2 acyl side, 3 side chain; on linkers, the order of the positions; unused ones are H or OH. Bridge positions count the residues as written; N and C are the ends. Square brackets hold non-standard residues; d marks the D form. Peptide text beside a SMILES is read from it. * marks the point of attachment. hPhe(3-Cl-4-CF3) = N[C@@H](CCc1ccc(C(F)(F)F)c(Cl)c1)C(=O)O; hPhe(3-F,4-CF3) = N[C@@H](CCc1ccc(C(F)(F)F)c(F)c1)C(=O)O; NEtPhe(4-Me) = CCN[C@@H](Cc1ccc(C)cc1)C(=O)O; NMePhe(4-Me) = CN[C@@H](Cc1ccc(C)cc1)C(=O)O; NMeMet(O2) = CN[C@@H](CCS(C)(=O)=O)C(=O)O; NMedβ3hAla = C[C@H](CC(=O)[*:2])N(C)[*:1]; NMeGly(cPent) = CN[C@H](C(=O)O)C1CCCC1; NMeGly(cBu) = CN[C@H](C(=O)O)C1CCC1; NMeCha = CN[C@@H](CC1CCCCC1)C(=O)O; Hyp = O=C(O)[C@@H]1C[C@@H](O)CN1; NMeChg = CN[C@H](C(=O)O)C1CCCCC1; NMeI = CC[C@H](C)[C@H](NC)C(=O)O; N(CH2CH2)2CF2 = FC1(F)CCN(*)CC1; NMeD = CN[C@@H](CC(=O)O)C(=O)O; NMeL = CN[C@@H](CC(C)C)C(=O)O; NMeV = CN[C@H](C(=O)O)C(C)C; d(β3hA) = C[C@@H](N)CC(=O)O; NMeS = CN[C@@H](CO)C(=O)O; NPhGly = O=C(O)CNc1ccccc1; Morpholide = C1CN(*)CCO1; NMeA = CN[C@@H](C)C(=O)O; NMeAib = CNC(C)(C)C(=O)O; Piperidide = C1CCN(*)CC1; Ac5c = NC1(C(=O)O)CCCC1; Aze = O=C(O)[C@@H]1CCN1; Sar = CNCC(=O)O; Propyl = CCC*

What was measured:
[1] = molecular target: protein-protein interaction between Kras and SOS1 (biotin-tagged human Kras loaded with GDP, His-tagged human SOS1) (Homo sapiens (Human), UniProt P01116, G12D); test: Protein-protein interaction inhibition between Kras and SOS1 (KrasG12D-SOS PPI) using AlphaScreen; type: biochemical; settings: AlphaScreen; biotin-tagged human Kras loaded with GDP, His-tagged human SOS1; read-out: KRAS G12D-SOS PPI IC50;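 further: kras produced in E. coli, Ni-coupled donor beads and streptavidin acceptor beads, excitation 680 nm with emission detected at 520–620 nm via singlet oxygen transfer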
[2] = test system: Human pancreatic cancer cell line AsPC-1 (G12D mutation Kras); test: AsPC-1 cell growth inhibition (AsPC-1 CGI); type: cell-based; settings: read-out: AsPC-1 cell growth inhibition, 50% growth inhibitory concentration (IC50 value); 96 hours, CellTiter-Glo, values classified in ranges
Method: Test compounds were serially dilated with dimethyl sulfoxide, and 200 nL was then dispensed to a U-bottom 96-well plate using Labcyte Echo. […] The cell suspension was dispensed to a. plate containing a test compound at 100 μL per well and incubated at 37° C. in a 5% carbon dioxide gas incubator. 96 hours later, 80 μL of CellTiter-Glo (Promega) was added to each well and fluorescence was measured.

SMILES | IC50 [1] | IC50 [2]
CC[C@H](C)[C@@H]1NC(=O)[C@H](CC(C)C)N(C)C(=O)C[C@@H](C(=O)N(C)C)NC(=O)[C@H](C(C)C)N(C)C(=O)C2(CCCC2)NC(=O)[C@H](CC(=O)N2CCC(F)(F)CC2)N(C)C(=O)[C@H](CCc2ccc(C(F)(F)F)c(Cl)c2)NC(=O)CN(C)C(=O)[C@H](CC2CCCCC2)N(C)C(=O)CN(C)C(=O)CN(C)C1=O [Compound 97] ([NMeL]I[Sar][Sar][NMeCha][Sar][hPhe(3-Cl-4-CF3)][NMeD](N(CH2CH2)2CF2)[Ac5c][NMeV]D-NMe2; lactam N-11) | 40 nM | > 500 nM
CC[C@H](C)[C@@H]1NC(=O)[C@H](CC(C)C)N(C)C(=O)C[C@@H](C)NC(=O)[C@H](C2CCCCC2)N(C)C(=O)C2(CCCC2)NC(=O)[C@@H]2CCCN2C(=O)[C@H](CCc2ccc(C(F)(F)F)c(Cl)c2)NC(=O)CN(C)C(=O)[C@H](Cc2ccc(C)cc2)N(C)C(=O)[C@@H]2CCN2C(=O)[C@H](C)N(C)C1=O [Compound 1747] (cyclo([Ac5c][NMeChg][d(β3hA)][NMeL]I[NMeA][Aze][NMePhe(4-Me)][Sar][hPhe(3-Cl-4-CF3)]P)) | 16 nM | > 500 nM
CC[C@H](C)[C@@H]1NC(=O)[C@H](CCS(C)(=O)=O)N(C)C(=O)C[C@@H](C(=O)N2CCCCC2)N(C)C(=O)[C@H](C(C)C)N(C)C(=O)C2(CCCC2)NC(=O)[C@@H]2CCCN2C(=O)[C@H](CCc2ccc(C(F)(F)F)c(Cl)c2)NC(=O)CN(C)C(=O)[C@H](CC2CCCCC2)N(C)C(=O)[C@@H]2CCN2C(=O)[C@H](C)N(C)C1=O [Compound 419] ([NMeMet(O2)]I[NMeA][Aze][NMeCha][Sar][hPhe(3-Cl-4-CF3)]P[Ac5c][NMeV][NMeD]-Piperidide; lactam N-11) | 2.4 nM | > 500 nM
CCO[C@@H]1C[C@H]2C(=O)NC3(CCCC3)C(=O)N(C)[C@@H](C3CCCC3)C(=O)N(C)[C@H](C)CC(=O)N(C)[C@@H](CC(C)C)C(=O)N[C@@H]([C@@H](C)CC)C(=O)N(C)[C@@H](C)C(=O)N3CC[C@H]3C(=O)N(CC)[C@@H](Cc3ccc(C)cc3)C(=O)N(C)CC(=O)N[C@@H](CCc3ccc(C(F)(F)F)c(Cl)c3)C(=O)N2C1 [Compound 775] (cyclo([Ac5c][NMeGly(cPent)][NMedβ3hAla][NMeL]I[NMeA][Aze][NEtPhe(4-Me)][Sar][hPhe(3-Cl-4-CF3)][Hyp](Et))) | 4.6 nM | ≤ 20 nM
CC[C@H](C)[C@@H]1NC(=O)[C@H](CC(C)C)N(C)C(=O)C[C@@H](C)N(C)C(=O)[C@H]([C@@H](C)CC)N(C)C(=O)C2(CCCC2)NC(=O)[C@@H]2CCCN2C(=O)[C@H](CCc2ccc(C(F)(F)F)c(F)c2)NC(=O)CN(C)C(=O)[C@H](Cc2ccc(C)cc2)N(C)C(=O)[C@@H]2CCN2C(=O)[C@H](C)N(C)C1=O [Compound 404] (cyclo([Ac5c][NMeI][NMedβ3hAla][NMeL]I[NMeA][Aze][NMePhe(4-Me)][Sar][hPhe(3-F,4-CF3)]P)) | 4.8 nM | ≤ 20 nM
CC[C@H](C)[C@@H]1NC(=O)[C@H](C)N(C)C(=O)C[C@@H](C(=O)N2CCCCC2)N(C)C(=O)[C@H](C2CCC2)N(C)C(=O)C(C)(C)N(C)C(=O)CN(c2ccccc2)C(=O)[C@H](CCc2ccc(C(F)(F)F)c(Cl)c2)NC(=O)CN(C)C(=O)[C@H](CC2CCCCC2)N(C)C(=O)CN(C)C(=O)CN(C)C1=O [Compound 2150] ([NMeA]I[Sar][Sar][NMeCha][Sar][hPhe(3-Cl-4-CF3)][NPhGly][NMeAib][NMeGly(cBu)][NMeD]-Piperidide; lactam N-11) | 5.7 nM | > 500 nM
CCCOC[C@H]1C(=O)N(C)CC(=O)N[C@@H](CCc2ccc(C(F)(F)F)c(Cl)c2)C(=O)N2CCC[C@H]2C(=O)NC2(CCCC2)C(=O)N(C)[C@@H]([C@@H](C)CC)C(=O)N(C)[C@H](C(=O)N2CCOCC2)CC(=O)N(C)[C@@H](CC(C)C)C(=O)N[C@@H]([C@@H](C)CC)C(=O)N(C)[C@@H](C)C(=O)N2CC[C@H]2C(=O)N1C [Compound 693] ([NMeL]I[NMeA][Aze][NMeS](Propyl)[Sar][hPhe(3-Cl-4-CF3)]P[Ac5c][NMeI][NMeD]-Morpholide; lactam N-11) | 1.6 nM | ≤ 20 nM
